Measurements published in publication PMC6628362, “A New Strategy for Glioblastoma Treatment: In Vitro and In Vivo Preclinical Characterization of Si306, a Pyrazolo[3,4-d]Pyrimidine Dual Src/P-Glycoprotein Inhibitor” (Cancers, 2019).
“Also recorded” adds a separate entry of the source.

How the values were obtained:
CYP3A4 = biological target: T1, CYP3A4 (Homo sapiens, UniProt P08684); assay: CYP3A4 inhibition in human liver microsomes (testosterone 6β-hydroxylation); assay type: in vitro ADME
T1 construct: Incubations were carried out in a mix containing human liver microsomes (1 mg/mL of protein); from tissue; host or cells: human liver microsomes
Description: The inhibition of cytochrome P450 3A4 isoform by Si306 and pro-Si306 was measured by determining its activity on the substrate testosterone.
The activity of CYP3A4 was evaluated by measuring the 6β-hydroxylated testosterone formation (CYP3A4-specific reaction). The amount of 6β-hydroxylated metabolite was assessed in the absence and presence of Si306, pro-Si306 and ketoconazole (testosterone concentration of 100 μM in phosphate buffer 0.025 M, pH 7.4). […] Ketoconazole was used as standard selective inhibitor of CYP3A4 isoenzyme. Incubations were carried out in a mix containing human liver microsomes (1 mg/mL of protein) in phosphate buffer 0.025 M, pH 7.4, NADPH (200 μM) previously solubilized in a MgCl2 48 mM solution. The final incubation volume was 0.25 mL. After a 40 min-incubation period at 37 °C, the reaction was stopped by adding 1 mL of acetonitrile in the presence of corticosterone 2 μM as internal standard. The samples were centrifuged for 20 min at 5000 rpm. Concentrations of testosterone and its metabolite 6β-hydroxytestosterone were assessed by the HPLC method with UV detection. Calibration curve for quantitative analysis of 6β-hydroxytestosterone in the samples was obtained using commercial 6β-hydroxytestosterone purchased from Sigma Aldrich. For the statistical analysis, GraphPad InStat 3.0 (GraphPad Software, San Diego, CA, USA) was used.

[1] = set-up: method as in PMID 28650650; conditions: cited from earlier work
P-gp = P-gp (Homo sapiens, UniProt P08183); assay: Rho 123 accumulation assay (P-gp inhibition) in U87-TxR cells; conditions: 30 min
Description: At the end of the accumulation period, the cells were pelleted by centrifugation, washed with PBS and placed in cold PBS. The samples were kept on ice in a dark setting until the analysis on CyFlow Space Partec flow-cytometer (Sysmex Partec GmbH, Germany). […] A minimum of 10,000 events was assayed for each sample and the obtained results were analyzed using Summit Dako Software (ver. 4.3, Fort Collins, CO, USA).

[2] = biological target: Human Serum Albumin (HSA) (Homo sapiens, UniProt P02768); assay: Binding fluorimetric assay, HSA; assay type: in vitro ADME
Description: In order to determine the binding affinity for Si306 and pro-Si306 to HSA (human serum albumin) and AGP (alpha-1-acid glycoprotein), the protein fluorescence has been monitored by spectroscopy. The quantitative analysis was performed using black 96 multiwell plates: in each well, a fixed concentration of HSA or AGP (10 µM in phosphate buffer 1 mM) was added with different amounts of the tested compound (0.1 µM to 500 µM). Plates were gently shacked and after 30 min at room temperature for equilibration, spectra were recorded from 300 to 400 nm, after excitation at 295 nm, by using a Perkin Elmer EnVision Multilabel Reader 2014 spectrofluorimeter. Finally, spectra were acquired with EnVision Manager ver.1.13 software (Walthman, MA, USA). The obtained non fluorescence quenching percentages were plotted against drug concentrations and the relative KD values were calculated using GraphPad software (version 6.0).

U87-TxR = assay: MTT cell growth inhibition, MDR U87-TxR; assay type: cell-based, Human; conditions: 72 h, n = 3
Description: (§1) Human GBM cell lines U87 and LN-229 were purchased from the American Type Culture Collection, Rockville, MD, USA. U87-TxR cells were selected from U87 cells by continuous exposure to increasing concentrations of PTX [76]. LN-299, U87 and U87-TxR cells were grown in Minimum Essential Medium with 10% fetal bovine serum, 2 mM L-glutamine and 5000 U/mL penicillin, 5 mg/mL streptomycin solution. Cell lines were maintained at 37 °C in a humidified 5% CO2 atmosphere. They were sub-cultured at 72 h intervals using 0.25% trypsin/EDTA and 16,000 cells/cm^2 were seeded into a fresh medium.
(§2) MTT assay was used to assess the viability of U87 and U87-TxR cells (AppliChem GmbH, Taufkirchen, Germany). After reaching the confluence in 25 cm^2 tissue flasks, U87 and U87-TxR cells were trypsinized. Cells were seeded at the optimal density determined in initial experiments: 4000 cell/well into flat-bottomed 96-well tissue culture plates. Following the overnight incubation, cells were treated with Si306, pro-Si306 and dasatinib (1–25 µM) for 72 h. In addition, the combined effects of Si306 and pro-Si306 with PTX were evaluated in MDR GBM cells. To that end, two concentrations of Si306 and pro-Si306 (0.2 μM and 0.5 μM) were combined with increasing concentrations of PTX (0.1–2 μM) in simultaneous treatment. The sensitization of U87-TxR cells to PTX was studied after 72 h. Briefly, MTT was added to each well in a final concentration of 0.2 mg/mL for 4 h to induce the formation of the formazan in cells with intact/viable mitochondria. Then, produced formazan was dissolved in DMSO, and the absorbance was measured at 540 nm on a microplate reader (LKB 5060-006 Micro Plate Reader, Vienna, Austria). IC50 values were calculated by nonlinear regression analysis using GraphPad Prism 6.0 for Windows (GraphPad Software, La Jolla, CA, USA).

T98G = assay: Cell viability, T98G (Table S1); assay type: cell-based; conditions: Homo sapiens, 72 h
Description: (§3) 1. Cell Growth Inhibition by Dasatinib, Si306 and Pro-Si306
(§4) GB cell lines BT138, T98G and A172 were treated with Si306 and pro-Si306 at concentrations ranging from 1 to 100 µM, or with DMSO as a control. Cell viability was evaluated 72 h after treatment for T98G and A172 cell lines and after 24 h for BT-138. In table S1 the IC50 values are reported.
(§5) Table S1. Sensitivity of glioblastoma multiforme (GBM) cells to Si306 and pro-Si306 expressed as IC50 […]
(§6) Figure S1. Rho 123 accumulation in U87-TxR cells treated with increasing concentrations of TQ (A), Dex-VER (B), Si306 (C) and pro-Si306 (D).
(§7) (1 picture or pasted object on this page, not shown here)

BT-138 = assay: Cell viability, BT-138 (Table S1); assay type: cell-based; conditions: BT-138, 24 h
Description: as §3, §4, §5, §6, §7

U87-TxR cells = assay: Reversal of paclitaxel resistance, MTT combination treatment; assay type: cell-based, Human; conditions: 0.2 µM of the compound, 72 h
Description: as §2

U87 cells = test system: U87 cells; set-up: method as in PMID 28650650; conditions: single oral treatment, mice orthotopically injected with U87 cells; cited from earlier work
U87 = assay: MTT cell growth inhibition, U87; assay type: cell-based, Human; conditions: 72 h, n = 3
Description: as §1, §2

[3] = 10 µM HSA, fluorescence quenching

Chain of P-gp (P08183 whole entry): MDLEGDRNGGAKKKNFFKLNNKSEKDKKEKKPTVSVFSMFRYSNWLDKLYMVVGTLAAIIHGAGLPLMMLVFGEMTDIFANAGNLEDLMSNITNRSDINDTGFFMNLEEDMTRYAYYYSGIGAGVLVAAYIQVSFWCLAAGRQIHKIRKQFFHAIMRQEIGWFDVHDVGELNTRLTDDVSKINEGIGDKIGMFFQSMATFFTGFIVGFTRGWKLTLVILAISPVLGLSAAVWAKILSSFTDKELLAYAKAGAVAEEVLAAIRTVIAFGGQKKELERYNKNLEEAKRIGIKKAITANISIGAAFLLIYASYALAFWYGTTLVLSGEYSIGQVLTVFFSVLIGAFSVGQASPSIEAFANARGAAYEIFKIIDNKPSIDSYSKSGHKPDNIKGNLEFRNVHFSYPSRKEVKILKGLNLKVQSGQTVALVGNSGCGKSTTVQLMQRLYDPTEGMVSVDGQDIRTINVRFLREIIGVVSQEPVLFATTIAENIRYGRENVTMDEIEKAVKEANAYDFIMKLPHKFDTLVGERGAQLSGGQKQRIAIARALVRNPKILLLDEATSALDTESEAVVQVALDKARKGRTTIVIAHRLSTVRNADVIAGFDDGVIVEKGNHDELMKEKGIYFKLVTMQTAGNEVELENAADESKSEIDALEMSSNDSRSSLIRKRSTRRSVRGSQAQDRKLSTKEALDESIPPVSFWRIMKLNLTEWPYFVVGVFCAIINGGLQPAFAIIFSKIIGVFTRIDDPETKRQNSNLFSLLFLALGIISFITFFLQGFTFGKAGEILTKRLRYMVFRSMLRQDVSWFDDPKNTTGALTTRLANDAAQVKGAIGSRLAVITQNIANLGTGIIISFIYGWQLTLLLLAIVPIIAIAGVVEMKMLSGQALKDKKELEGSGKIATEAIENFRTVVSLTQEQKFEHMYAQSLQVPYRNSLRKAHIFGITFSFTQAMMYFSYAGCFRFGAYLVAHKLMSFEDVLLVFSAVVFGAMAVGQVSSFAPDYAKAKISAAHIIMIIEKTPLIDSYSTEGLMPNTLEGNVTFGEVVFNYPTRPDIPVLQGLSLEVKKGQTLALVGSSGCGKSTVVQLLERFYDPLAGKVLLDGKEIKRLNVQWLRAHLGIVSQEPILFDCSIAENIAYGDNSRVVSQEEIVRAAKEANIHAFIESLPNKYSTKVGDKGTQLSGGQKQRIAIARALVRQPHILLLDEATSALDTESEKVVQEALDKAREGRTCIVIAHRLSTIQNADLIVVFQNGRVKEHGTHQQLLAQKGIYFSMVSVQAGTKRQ
Chain of Human Serum Albumin (HSA) (P02768 25-609): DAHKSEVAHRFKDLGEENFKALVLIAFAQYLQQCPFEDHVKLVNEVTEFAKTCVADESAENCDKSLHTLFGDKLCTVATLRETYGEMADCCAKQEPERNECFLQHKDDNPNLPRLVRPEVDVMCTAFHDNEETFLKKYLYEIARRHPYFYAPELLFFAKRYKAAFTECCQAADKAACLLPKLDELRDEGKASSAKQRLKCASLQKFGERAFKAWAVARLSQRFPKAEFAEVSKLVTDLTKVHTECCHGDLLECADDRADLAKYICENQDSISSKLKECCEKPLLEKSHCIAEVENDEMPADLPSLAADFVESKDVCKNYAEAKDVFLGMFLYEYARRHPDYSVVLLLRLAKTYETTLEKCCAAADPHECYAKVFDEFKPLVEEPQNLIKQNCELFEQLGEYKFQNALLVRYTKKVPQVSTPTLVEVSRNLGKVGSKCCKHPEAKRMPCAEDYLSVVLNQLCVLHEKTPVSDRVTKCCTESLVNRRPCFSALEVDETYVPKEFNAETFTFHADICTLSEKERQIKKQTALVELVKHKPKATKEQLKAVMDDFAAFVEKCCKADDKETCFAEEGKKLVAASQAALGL
T1 sequence (P08684 whole entry): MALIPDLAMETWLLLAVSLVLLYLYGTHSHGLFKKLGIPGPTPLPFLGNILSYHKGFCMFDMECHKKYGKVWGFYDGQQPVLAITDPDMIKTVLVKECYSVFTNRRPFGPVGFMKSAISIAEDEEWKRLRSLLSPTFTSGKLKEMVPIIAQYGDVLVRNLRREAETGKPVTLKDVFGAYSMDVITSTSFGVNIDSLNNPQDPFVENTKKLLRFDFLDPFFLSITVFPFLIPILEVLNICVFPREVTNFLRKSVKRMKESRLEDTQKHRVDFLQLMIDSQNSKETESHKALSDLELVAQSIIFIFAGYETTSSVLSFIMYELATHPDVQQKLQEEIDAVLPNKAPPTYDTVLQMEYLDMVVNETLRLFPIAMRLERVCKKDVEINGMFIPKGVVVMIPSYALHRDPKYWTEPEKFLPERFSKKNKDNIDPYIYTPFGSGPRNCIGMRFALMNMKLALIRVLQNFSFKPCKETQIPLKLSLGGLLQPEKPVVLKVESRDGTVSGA

Question: Which inhibition at 40 min, 50 μM (CYP3A4; pH 7.4, probe testosterone 100 μM (6β-hydroxylation), highest concentration used (1–50 μM range), not significative, read-out: maximum inhibition of CYP3A4 (testosterone 6β-hydroxylation)) does the source give for `ClC(Cn1ncc2c(Nc3cccc(Br)c3)nc(SCCN3CCOCC3)nc21)c1ccccc1` (stereo not shown) [Si306] here?
Answer: 20%

Question: And the “interaction with CYP3A4” value (CYP3A4; up to 50 μM)?
Answer: do not interact with CYP3A4

Question: What about the solubility [1] of the same compound?
Answer: very poorly water soluble

Question: And the “P-gp activity (Rho 123 intracellular accumulation)” value (P-gp; 5 µM)?
Answer: considerably inhibited P-gp activity; also recorded: significant suppression of P-gp activity

Question: What about the IC50 (P-gp; IC50 of P-gp inhibition, Rho 123 accumulation) of the same compound?
Answer: 8.5 µM

Question: What about the BMAX [2, 3] of the same compound?
Answer: 61.05 ± 2.8

Question: What about the Kd [2, 3] of the same compound?
Answer: 350 ± 100 nM

Question: What about the “affinity for albumin, fold greater than pro-Si306” value ([2]; HSA) of the same compound?
Answer: 60 fold

Question: And the IC50 (U87-TxR)?
Answer: 4.78 ± 0.322 µM

Question: And the IC50 (U87-TxR; Homo sapiens, U87-TxR)?
Answer: 4.8 µM

Question: And the IC50 (T98G)?
Answer: 460 ± 20 nM

Question: What about the IC50 (BT-138) of the same compound?
Answer: 72.6 ± 6.21 µM

Question: What about the “Relative Reversal of PTX resistance” value (U87-TxR cells) of the same compound?
Answer: 1.16 ^ns

Question: What about the prolongation of survival (U87 cells) of the same compound?
Answer: 30%

Question: And the IC50 (U87)?
Answer: 3.08 ± 0.26 µM

Question: What about the IC50 (U87; Homo sapiens, U-87 MG) of the same compound?
Answer: ~3 µM
